# Tests used:
# [1] = tested on: antigen-specific CD8^+ CTLs; test: Tetramer assay, pulmonary versus subcutaneous administration (Test Example 14); assay type: in vivo, mouse; conditions: Day 14
# Description: (§1) The tetramer assay was carried out as follows. Lymphocytes were recovered from the regional lymph nodes, were stained with fluorescently labeled antibodies against CD44 and CD8 and a fluorescently labeled tetramer recognizing the SL8 peptide presented on H-2K^b, then were analyzed using a flow cytometer.
# In this study, CD8^+ cytotoxic T cells inducibility by pulmonary administration and that by subcutaneous administration were compared by using SL8-FL4. 40 μL of physiological saline containing 50 μg of SL8-FL4 in terms of SL8 amount and 10 μg of CpG oligodeoxynucleotide (K3 type, product name “K3 Et-Free”, product number “CN-65003” manufactured by GeneDesign Inc.) was pulmonarily or subcutaneously administered to 7-week old C57BL/6 mice on Day 0 and Day 7, regional lymph nodes and the spleen were collected on Day 14 and a tetramer assay was performed in the same manner as Test Example 8. In addition, a test was also carried out in the case where only physiological saline was subcutaneously administered in the same manner (control). Meanwhile, in these tests, five mice in each group were used.
# [2] = tested on: antigen-specific CD8^+ CTLs; test: Tetramer assay on regional lymph nodes, CD8+ CTL inducibility (Test Example 8); assay type: in vivo, mouse; conditions: co-administered with CpG oligodeoxynucleotide, 50 μg in terms of SL8 subcutaneously into the ears Day 0, lymph nodes Day 7
# Description: A fusion peptide (SL8-FL4) was prepared by linking the N-terminus of the peptide consisting of the amino acid sequence of FL4 to the C-terminus of SL8 (SIINFEKL; SEQ ID NO: 40) which is an MHC class I epitope peptide in chicken ovalbumin (OVA). Specifically, the amino acid sequence of the fusion peptide is [Amino acid sequence of SL8 (SIINFEKL; SEQ ID NO: 40)]-[VSYKAIR; SEQ ID NO: 1]. The production method of the fusion peptide was the same as that of PspA-FL4 except that a DNA molecule encoding SL8 was used. In addition, each of peptide-fusion bodies (SL8-F8 and SL8-FL4Scr) in which the peptide was fused with SL8 was prepared using each of FL8 and the scramble peptide of FL4 (FL4Scr, amino acid sequence: YRSIVKA, SEQ ID NO: 41) in the same manner. […]
# as §1
# EG7 cells = test: Tumor size in mice transplanted with EG7 cells (Test Example 9); assay type: in vivo, mouse; conditions: EG7 tumor bearing C57BL/6 mice
# Description: In this test, whether the regression effect of cancer was observed by SL8-specific CD8^+ CTLs induced by SL8-FL4 was evaluated. In this test, EG7 cells (cancer cells expressing OVA protein in EL4 cells derived from thymoma of C57BL/6 mouse) were used as cancer cells. Specific test methods are as follows.
# 1 (10^6 EG7 cells were transplanted into the abdomen of 7-week old C57BL/6 mice to prepare tumor bearing mice. 50 μL of physiological saline containing 50 μg of SL8-FL4 in terms of SL8 amount and 50 μg of CpG oligodeoxynucleotide (K3 type, product name “K3 Et-Free”, product number “CN-65003” manufactured by GeneDesign Inc.) was administered subcutaneously into the ears of mice after EG7 cells were transplanted and the tumor diameter reached about 5 mm (about 5 days after transplantation). Thereafter, tumor size was measured over time while breeding the mice. In addition, similar tests were carried out with regard to the case where 50 μL of physiological saline containing 50 μg SL8 and 50 μg of CpG oligodeoxynucleotide was administered, and the case where only physiological saline was administered (control). Meanwhile, in these tests, five mice in each group were used.
# [3] = tested on: antigen-specific CD8^+ CTLs; test: Tetramer assay after pulmonary administration (Test Example 13); assay type: in vivo, mouse; conditions: pulmonary administration Day 0 and Day 7 with 10 μg CpG oligodeoxynucleotide, Day 14
# Description: as §1
# 40 μL of physiological saline containing 50 μg of SL8-FL4 in terms of SL8 amount and 10 μg of CpG oligodeoxynucleotide (K3 type, product name “K3 Et-Free”, product number “CN-65003” manufactured by GeneDesign Inc.) was pulmonarily administrated to 7-week old C57BL/6 mice on Day 0 and Day 7, regional lymph nodes, lung tissues and the spleen were collected on Day 14 and a tetramer assay was performed in the same manner as Test Example 8. In addition, similar tests were conducted with regard to the case where 40 μL of physiological saline containing 50 μg SL8 alone was pulmonarily administered, the case where 50 μL of physiological saline containing 50 μg SL8 and 10 μg of CpG oligodeoxynucleotide was pulmonarily administered, and the case where only physiological saline was pulmonarily administered (control). Meanwhile, in these tests, five mice in each group were used.
# [4] = tested on: antigen-specific CD8^+ CTLs; test: IFN-γ production by immune cells of regional lymph nodes, Kras G12D peptide (Test Example 10); assay type: in vivo, mouse; conditions: 50 μg as G12D-derived peptide with 10 μg CpG oligodeoxynucleotide, subcutaneously into the ears Day 0, lymph node cells Day 7, cultured 24 hours
# Description: A fusion peptide (G12D-FL4) was prepared by linking the N-terminus of the peptide consisting of the amino acid sequence of FL4 to the C-terminus of a partial peptide of Kras containing G12D mutation (G12D-derived peptide; LVVVGADGV (SEQ ID NO: 42); the 6th to 14th amino acid sequence from the N-terminal side of Kras containing G12D mutation). Specifically, the amino acid sequence of the fusion peptide is [Partial sequence of Kras containing G12D mutation (LVVVGADGV; SEQ ID NO: 42)]-[VSYKAIR; SEQ ID NO: 1]. The production method of the fusion peptide was the same as that of PspA-FL4 except that a DNA molecule encoding the G12D-derived peptide was used.
# 50 μL of physiological saline containing 50 μg of G12D-FL4 in terms of the G12D-derived peptide amount and 10 μg of CpG oligodeoxynucleotide (K3 type, product name “K3 Et-Free”, product number “CN-65003” manufactured by GeneDesign Inc.) was administered subcutaneously into the ears of 7-week old C57BL/6 mice on Day 0, regional lymph nodes were collected on Day 7 and immune cells were recovered. […]
# Neuropilin-1 = Neuropilin-1 (Homo sapiens, UniProt O14786); conditions: reported so far; cited from earlier work
# Chain of Neuropilin-1 (O14786 22-923, species assumed): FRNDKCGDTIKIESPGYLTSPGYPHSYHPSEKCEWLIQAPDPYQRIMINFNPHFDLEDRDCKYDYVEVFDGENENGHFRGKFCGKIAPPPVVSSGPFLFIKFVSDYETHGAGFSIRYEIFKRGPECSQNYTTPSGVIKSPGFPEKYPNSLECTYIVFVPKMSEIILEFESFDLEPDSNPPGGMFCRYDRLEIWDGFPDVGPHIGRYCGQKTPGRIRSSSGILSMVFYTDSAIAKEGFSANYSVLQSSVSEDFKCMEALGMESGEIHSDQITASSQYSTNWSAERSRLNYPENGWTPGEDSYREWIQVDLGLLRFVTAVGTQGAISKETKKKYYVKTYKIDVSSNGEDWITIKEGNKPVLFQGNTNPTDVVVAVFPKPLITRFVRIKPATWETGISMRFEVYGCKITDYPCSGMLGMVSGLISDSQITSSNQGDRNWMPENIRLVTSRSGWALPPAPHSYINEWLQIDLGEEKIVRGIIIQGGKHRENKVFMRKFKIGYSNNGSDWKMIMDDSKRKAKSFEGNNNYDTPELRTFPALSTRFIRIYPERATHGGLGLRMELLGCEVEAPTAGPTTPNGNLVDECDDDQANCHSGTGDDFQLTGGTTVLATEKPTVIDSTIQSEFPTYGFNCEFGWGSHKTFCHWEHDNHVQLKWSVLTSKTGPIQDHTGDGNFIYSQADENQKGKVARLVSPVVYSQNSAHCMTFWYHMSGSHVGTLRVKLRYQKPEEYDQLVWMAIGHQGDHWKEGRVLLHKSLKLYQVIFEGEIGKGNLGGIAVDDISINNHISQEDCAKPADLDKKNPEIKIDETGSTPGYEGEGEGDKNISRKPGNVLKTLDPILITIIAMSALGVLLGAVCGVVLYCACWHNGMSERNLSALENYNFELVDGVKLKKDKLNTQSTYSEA
substance,measurement,setting,value
"[Amino acid sequence of SL8 (SIINFEKL; SEQ ID NO: 40)]-[VSYKAIR; SEQ ID NO: 1] (SIINFEKLVSYKAIR; SL8 C-terminus; Amino acid sequence of motif sequence) [SL8-FL4, fusion peptide of SL8 and FL4]",induction of antigen-specific CD8+ CTLs in regional lymph nodes in the lungs,[1]; pulmonary administration Day 0 and Day 7 with 10 μg CpG oligodeoxynucleotide,strong induction
same,induction of antigen-specific CD8+ CTLs in the spleen,[1]; subcutaneous administration Day 0 and Day 7 with 10 μg CpG oligodeoxynucleotide,Strong induction
same,"induction of antigen-specific CD8+ CTLs (tetramer assay, regional lymph nodes)",[2],strong induction
same,tumor regression effects,"EG7 cells; 50 μg as SL8 with 50 μg CpG oligodeoxynucleotide subcutaneously into the ears, compared with physiological saline",very strong tumor regression effects
same,cure of tumor bearing mice,EG7 cells; co-administered with CpG oligodeoxynucleotide,completely cured mice were observed
same,induction of antigen-specific CD8+ CTLs in lung tissues,[3],strongly induced
same,induction of antigen-specific CD8+ CTLs in regional lymph nodes in the lungs,[3],strongly induced
same,induction of antigen-specific CD8+ CTLs in the spleen,[3],strongly induced
"LVVVGADGV [G12D-derived peptide, partial peptide of Kras containing G12D mutation, reference compound]",induction of antigen-specific CD8+ CTLs (IFN-γ production ability),[4],no induction
"[Partial sequence of Kras containing G12D mutation (LVVVGADGV; SEQ ID NO: 42)]-[VSYKAIR; SEQ ID NO: 1] (LVVVGADGVVSYKAIR; G12D-derived peptide; Amino acid sequence of motif sequence) [G12D-FL4, fusion peptide of G12D-derived peptide and FL4]",induction of antigen-specific CD8+ CTLs (IFN-γ production ability),[4],very strong induction
RPARPAR (positive control peptide),binding to Neuropilin-1,Neuropilin-1,bind to Neuropilin-1

# Source: patent publication US11186618B2, “Dendritic-cell-targeted peptide, fusion peptide utilizing said peptide, and vaccine utilizing said fusion peptide” (The Research Foundation for Microbial Diseases of Osaka …, priority 2016, dated 2021)
